The values below come from patent publication US20040204746A1, “Enhanced bioavailability of nutrients, pharmaceutical agents, and other bioactive substances through laser resonant homogenization or modification of molecular shape or crystalline form” (priority 1999, published 2004).

For data set [1], the system named is murine macrophages. The experiment in a line: Nitrite (nitric oxide) production by LPS-stimulated murine macrophages. It is filed as cell-based. The settings on record: 24 hours; for nitric oxide byproducts compared with control untreated Arg #4: 120 mcg/ml; for Nitrites: determined from optical density; for Nitrites / Mean O.D. ± S.D.: 120 mcg/ml arginine, LPS 1 ng/ml; for Mean O.D. ± S.D.: optical density at 540 nm. The method, then:
Paracelsian in Ithaca, N.Y., an outside independent lab, performed the following bioassays. Each arginine sample was added to 12 wells of murine macrophages to achieve a concentration of 120 mcg/ml. This is the estimated serum concentration for a 70 Kg person after ingesting a 6-gram serving of arginine, a level observed in numerous clinical studies to be associated with a wide range of physiologic benefits. LPS at 1 ng/ml was added to each well and the cells were incubated for 24 hours. The nitrite concentration in each well's supernatant was determined 24 hours after initiation of treatment as a relative measure of nitric oxide production.
The results are listed in order of relative nitrite production, from greatest to least. The first column is the Arg #, the second the mean plus or minus the standard deviation of the optical density measurement at 540 nm, a measure of nitrite concentration, and the third column the relative production of nitrites expressed in micrograms per ml as determined from optical density.

Data set [2] relates to person with relapsing lupus. The experiment in a line: Case report: relapsing lupus treated with the methylation formula. The settings on record: before the formula. It is filed as in vivo, human. The source says: The exemplary patient had suffered with relapsing lupus for several years. At the time of entry into the methylation formula studies of EXAMPLE 6, they had experienced a relapse of severe disease for several months.
Their disease was characterized by exquisitely tender blistering and ulcerating lesions on their hands and feet that made it difficult to walk or open a cabinet door without severe pain. Their skin was pallid, they were extremely fatigued with a chronic low energy state, and had suffered extensive hair loss. Their sedimentation rate, a marker for systemic inflammation, was highly elevated at 99, whereas a normal level would be 0-30. […] They declined the use of corticosteroids due to severe treatment side effects during a prior relapse.
The subject was randomized to the placebo control group and for 3 months had no improvement in condition. In the second phase of the study, they were placed on a high dose of the methylation formula of 6 grams of laser treated betaine plus cofactors daily. […]
The subject continued on a lower dose of the laser treated methylation formula for 5 more months, reduced to 1-2 grams of the laser treated betaine plus cofactors. […] At the end of fifth month of lower dose treatment, their sedimentation rate had dropped to the very low normal value of 1, the lowest level ever recorded for them.

In data set [3] the test system is subject with osteoarthritis. The experiment in a line: Pilot test: blood SAMe level and knee pain in a subject with osteoarthritis. The class given is in vivo, human. The source says:
As a pilot test, a subject with osteoarthritis had blood SAMe levels measured while taking SAMe and then while taking a betaine formulation. […] On this level of SAMe ingestion for three months, their blood SAMe level was 4.9 (the normal range for this lab is 4.2-8.2). At this time, SAMe was discontinued and they started a methylation formula with one gram of laser treated betaine plus laser treated metabolic cofactors. The betaine and metabolic co-factors were in the same ratios as in the double blind clinical study formula to be described below.

For data set [4] the following is noted: 1600 mg per day, cited from earlier work.
Another data set concerns liver SAMe. The settings on record: animal studies; cited from earlier work.
The test system of data set [5] is subjects that had just survived a first myocardial infarction. The settings on record: betaine 9 grams daily plus vitamin B12, liver extract, creatine precursor; placebo 25%; cited from earlier work.
The test system of data set [6] is murine macrophages. Put plainly: TNF-alpha production by Echinacea-stimulated murine macrophages (ELISA). The class given is cell-based. The conditions noted are these: 24 hours, samples at 20 mg/ml with Echinacea. The method, then: An independent outside lab, Paracelsian in Ithaca, N.Y., performed the following bioassays. A standardized Echinacea sample alone or with 20 mg/ml of Samples 1, 2, or 3 were incubated in the tissue culture media of triplicate wells of murine macrophages for 24 hours after Echinacea stimulation and then assayed for tumor necrosis factor-alpha (TNF-alpha) production in triplicate ELISA wells. Positive controls with lipopolysaccharide (LPS) at 1 ng/ml and negative controls were also assayed in the same manner.
Those skilled in the art will appreciate that the use of murine macrophages simulates the body's immune response. Adding the herb Echinacea provides a similar response to that of an immune system that is being irritated. A TNF-alpha reading is a good marker for the extent of inflammation. Thus a substance that causes a significant increase in TNF-alpha in the macrophages can be expected to create substantial inflammation in a human body—especially a body suffering from an autoimmune disease such as inflammatory bowel disease, as well as other physiological problems such as systemic lupus erythematosus, rheumatoid arthritis and food allergies.

With `N=C(N)NCCC[C@H](N)C(=O)O` [Arg #1, L-arginine], in the data set with murine macrophages [1], the “nitric oxide byproducts compared with control untreated Arg #4” value was “statistically significantly less nitric oxide byproducts”, the Nitrites is on record as 10.6 micrograms per ml and the “Mean O.D. ± S.D.” value is given as “.215 ± .007”.
On the same counts, the results for `N=C(N)NCCC[C@H](N)C(=O)O` [Arg #2, L-arginine] are “statistically significantly less nitric oxide byproducts”, 10.8 micrograms per ml and “.219 ± .008”.
With `N=C(N)NCCC[C@H](N)C(=O)O` [Arg #3, L-arginine], in the data set on murine macrophages [1], the “nitric oxide byproducts compared with control untreated Arg #4” value is on record as “statistically significantly more nitric oxide byproducts”, the Nitrites is recorded as 12.0 micrograms per ml and the “Mean O.D. ± S.D.” value is listed as “.232 ± .010”.
Take `N=C(N)NCCC[C@H](N)C(=O)O` [Arg #4, L-arginine]: in the data set with murine macrophages [1], the Nitrites is 11.4 micrograms per ml and the “Mean O.D. ± S.D.” value was “.224 ± .006”.
`CCN(CCO)CCCC(C)Nc1ccnc2cc(Cl)ccc12` (stereo not shown) [Plaquenil]: the “relief of lupus symptoms” value in data set [2] is given as “did little to relieve their symptoms”.
As for `C[S+](CC[C@H](N)C(=O)O)C[C@H]1O[C@@H](n2cnc3c(N)ncnc32)[C@H](O)[C@@H]1O` (stereo partly shown) [SAMe, S-adenosyl-methionine], in data set [3] (800 mg of SAMe daily for three months, normal range 4.2-8.2), the “blood SAMe level” value worked out at 4.9. Further, the knee pain result in data set [3] (osteoarthritis) is “moderate degree of relief”. Besides, the side effects result in data set [4] is “essentially free of side effects”. In addition, the “onset of anti-depressant effects” value in data set [4] (tricyclics 4-6 weeks) is “within one week”.
Take `C[N+](C)(C)CC(=O)O` [betaine, N,N,N-trimethylglycine]: the “rise of liver SAMe levels” value in the data set on liver SAMe is recorded as “up to fourfold”. The “mortality after one year” value in data set [5] is “no mortality”.
As to “lipopolysaccharide [LPS 1 ng/ml Control]”, the “TNF-alpha ± S.D.” value in the data set with murine macrophages [6] was 2863 ± 185.7.
